The source of these data is PubChem BioAssay AID222 (DTP/NCI, 2004).

“And” between values parts separate entries of the source, which are not always exact repeats. Equal values may be shown once. Toxic doses and inconclusive results are not listed. Starred links: 1 amine or outer side, 2 acyl side, 3 side chain; linkers in the order of their positions; H or OH if unused. Positions of bridges follow the written chain, without caps; N, C: chain ends. Non-standard residues stand in square brackets, D forms with d. Residues, ends and D or L forms follow the SMILES beside them. Chains are numbered I, II in the order given. Actinocin(1to9) = Cc1c2oc3c(C)ccc(C(=O)[*:2])c3nc-2c(C(=O)[*:1])c(N)c1=O; NMeV = CN[CH](C(=O)O)C(C)C; Aze = O=C(O)[CH]1CCN1; Sar = CNCC(=O)O

The assay deals with C57BL/6 mice, intracerebral ependymoblastoma, median survival T/C. The assay can be described thus: NCI In Vivo Anticancer Drug Screen. Data for tumor model Ependymoblastoma (intracerebral) in C57BL/6 mice. As to conditions: endpoint: median survival time, higher = longer survival. The protocol: The antitumor activity of compounds was measured in mice bearing transplantable tumors. Survival or tumor size were measured and the results are expressed as the measurement made in the treated group (T) divided by the measurement made in the vehicle treated control group (C). The tumor model used in this assay is Ependymoblastoma (intracerebral) in C57BL/6 mice

The mark [1] stands for this setting: dose: 32.0 mg/kg/injection, schedule: Q01DX005 (ip), vehicle: Klucel (hydroxypropylcellulose) (HPC).
Setting [2] is: dose: 64.0 mg/kg/injection, schedule: Q01DX005 (ip), vehicle: Klucel (hydroxypropylcellulose) (HPC).
[3] abbreviates: dose: 100.0 mg/kg/injection, schedule: Q01DX005 (ip), vehicle: saline with Tween-80.
Setting [4] is: dose: 200.0 mg/kg/injection, schedule: Q01DX005 (ip), vehicle: saline with Tween-80.
[5] abbreviates: dose: 8.0 mg/kg/injection, schedule: Q01DX005 (ip), vehicle: Klucel (hydroxypropylcellulose) (HPC).
Where [6] appears, read: dose: 16.0 mg/kg/injection, schedule: Q01DX005 (ip), vehicle: Klucel (hydroxypropylcellulose) (HPC).

For `COc1cc2cc3c4cc(OC)c(OC)cc4cc[n+]3c(C)c2cc1OC` (tested in a mixture with another compound), the T/C is, setting by setting: (dose: 8.0 mg/kg/injection, schedule: Q01DX001 (ip), vehicle: saline) 98 % of control; (dose: 16.0 mg/kg/injection, schedule: Q01DX001 (ip), vehicle: saline) 91 % of control; (dose: 16.0 mg/kg/injection, schedule: Q#A X002 (ip), vehicle: saline) 94 % of control; (dose: 32.0 mg/kg/injection, schedule: Q01DX001 (ip), vehicle: saline) 90 % of control; under setting [1], 89 % of control; (dose: 32.0 mg/kg/injection, schedule: Q#A X002 (ip), vehicle: saline) 97 % of control and 105 % of control. The T/C by setting is: (dose: 64.0 mg/kg/injection, schedule: Q01DX001 (oral), vehicle: saline) 100 % of control and 104 % of control; under setting [2], 103 % of control and 107 % of control; (dose: 64.0 mg/kg/injection, schedule: Q#A X002 (ip), vehicle: saline) 111 % of control; (dose: 128.0 mg/kg/injection, schedule: Q01DX001 (oral), vehicle: saline) 100 % of control and 103 % of control; (dose: 128.0 mg/kg/injection, schedule: Q01DX005 (ip), vehicle: Klucel (hydroxypropylcellulose) (HPC)) 118 % of control and 121 % of control; (dose: 128.0 mg/kg/injection, schedule: Q#A X002 (ip), vehicle: saline) 103 % of control and 106 % of control. The T/C (dose: 256.0 mg/kg/injection, schedule: Q01DX001 (ip), vehicle: saline) was 87 % of control; the T/C (dose: 256.0 mg/kg/injection, schedule: Q01DX001 (oral), vehicle: saline) was 88 % of control and 103 % of control; the T/C (dose: 256.0 mg/kg/injection, schedule: Q01DX005 (ip), vehicle: Klucel (hydroxypropylcellulose) (HPC)) is 118 % of control; the T/C (dose: 256.0 mg/kg/injection, schedule: Q#A X002 (ip), vehicle: saline) was 87 % of control and 98 % of control; the T/C (dose: 512.0 mg/kg/injection, schedule: Q01DX001 (oral), vehicle: saline) was 100 % of control and 102 % of control; the T/C (dose: 1024.0 mg/kg/injection, schedule: Q01DX001 (oral), vehicle: saline) is 100 % of control and 107 % of control.

As to `Cc1c2oc3c(C)ccc(C(=O)NC4C(=O)NC(C(C)C)C(=O)N5CCCC5C(=O)N(C)CC(=O)N(C)C(C(C)C)C(=O)OC4C)c3nc-2c(C(=O)NC2C(=O)NC(C(C)C)C(=O)N3CCC3C(=O)N(C)CC(=O)N(C)C(C(C)C)C(=O)OC2C)c(N)c1=O` (stereo not given) (I: TV[Aze][Sar][NMeV] / II: TVP[Sar][NMeV]; ester I:1-I:C, II:1-II:C; linker I:N-II:N via Actinocin(1to9); configuration not given here), the T/C by setting is: (dose: 12.5 micrograms/kg/injection, schedule: Q01DX005 (ip), vehicle: saline) 110 % of control; (dose: 25.0 micrograms/kg/injection, schedule: Q01DX005 (ip), vehicle: saline) 107 % of control; (dose: 50.0 micrograms/kg/injection, schedule: Q01DX005 (ip), vehicle: saline) 101 % of control; (dose: 100.0 micrograms/kg/injection, schedule: Q01DX005 (ip), vehicle: saline) 111 % of control.

As to `CCOC(=O)C(C)(C)Oc1ccc(Cl)cc1`, the T/C reads like this: under setting [3], 96 % of control; under setting [4], 93 % of control.

Consider `CC[C@]12CN3CCc4c([nH]c5ccccc45)[C@@](C(=O)OC)(c4cc5c(cc4OC)N(C)[C@H]4[C@@](O)(C(=O)OC)[C@H](OC(C)=O)[C@]6(CC)C=CCN7CC[C@]54[C@@H]76)CC(C3)[C@H]1O2` (stereo not given in full), for which the T/C was 94 % of control (dose: 0.05 mg/kg/injection, schedule: Q01DX005 (ip), vehicle: saline); 93 % of control (dose: 0.1 mg/kg/injection, schedule: Q01DX005 (ip), vehicle: saline); 93 % of control (dose: 0.2 mg/kg/injection, schedule: Q01DX005 (ip), vehicle: saline); 108 % of control (dose: 0.4 mg/kg/injection, schedule: Q01DX005 (ip), vehicle: saline); 103 % of control (dose: 0.8 mg/kg/injection, schedule: Q01DX005 (ip), vehicle: saline); 103 % of control (dose: 1.6 mg/kg/injection, schedule: Q01DX005 (ip), vehicle: saline). Also, the T/C runs as follows: (dose: 3.2 mg/kg/injection, schedule: Q01DX005 (ip), vehicle: saline) 113 % of control; (dose: 6.4 mg/kg/injection, schedule: Q01DX005 (ip), vehicle: saline) 103 % of control; (dose: 12.8 mg/kg/injection, schedule: Q01DX005 (ip), vehicle: saline) 103 % of control.

`Cc1cn(C2CC(O)C(CO)O2)c(=O)[nH]c1=O` (stereo not given): the T/C (dose: 64.0 mg/kg/injection, schedule: Q01DX005 (ip), vehicle: saline with Tween-80) is 92 % of control and 97 % of control; the T/C under setting [3] is 91 % of control; the T/C (dose: 128.0 mg/kg/injection, schedule: Q01DX005 (ip), vehicle: saline with Tween-80) is 90 % of control and 105 % of control; the T/C under setting [4] was 98 % of control; the T/C (dose: 256.0 mg/kg/injection, schedule: Q01DX005 (ip), vehicle: saline with Tween-80) was 95 % of control and 87 % of control; the T/C (dose: 400.0 mg/kg/injection, schedule: Q01DX005 (ip), vehicle: saline with Tween-80) was 96 % of control. The T/C runs as follows: (dose: 512.0 mg/kg/injection, schedule: Q01DX005 (ip), vehicle: saline with Tween-80) 100 % of control; (dose: 800.0 mg/kg/injection, schedule: Q01DX005 (ip), vehicle: saline with Tween-80) 98 % of control; (dose: 1024.0 mg/kg/injection, schedule: Q01DX005 (ip), vehicle: saline with Tween-80) 100 % of control and 101 % of control; (dose: 1600.0 mg/kg/injection, schedule: Q01DX005 (ip), vehicle: saline with Tween-80) 98 % of control.

On to `CC(=O)[C@]1(O)Cc2c(O)c3c(c(O)c2[C@@H](OC2CC(N)C(O)C(C)O2)C1)C(=O)c1c(O)cccc1C3=O` (stereo not given in full), for which the T/C runs as follows: (dose: 7.8 micrograms/kg/injection, schedule: Q01DX005 (ip), vehicle: suspension in saline) 102 % of control; (dose: 15.6 micrograms/kg/injection, schedule: Q01DX005 (ip), vehicle: suspension in saline) 104 % of control; (dose: 31.0 micrograms/kg/injection, schedule: Q01DX005 (ip), vehicle: suspension in saline) 101 % of control; (dose: 62.5 micrograms/kg/injection, schedule: Q01DX005 (ip), vehicle: suspension in saline) 99 % of control; (dose: 125.0 micrograms/kg/injection, schedule: Q01DX005 (ip), vehicle: suspension in saline) 114 % of control.

With `O=C(NP(=O)(N1CC1)N1CC1)c1cc(I)ccc1I`, the T/C is, setting by setting: under setting [5], 106 % of control; (dose: 8.0 mg/kg/injection, schedule: Q01DX005 (ip), vehicle: saline with Tween-80) 91 % of control and 104 % of control; (dose: 8.0 mg/kg/injection, schedule: Q01DX005 (ip), vehicle: saline) 102 % of control and 107 % of control; under setting [6], 113 % of control; (dose: 16.0 mg/kg/injection, schedule: Q01DX005 (ip), vehicle: saline with Tween-80) 101 % of control and 106 % of control; (dose: 16.0 mg/kg/injection, schedule: Q01DX005 (ip), vehicle: saline) 102 % of control and 119 % of control. For the same molecule, the T/C runs as follows: under setting [1], 120 % of control; (dose: 32.0 mg/kg/injection, schedule: Q01DX005 (ip), vehicle: saline with Tween-80) 101 % of control; (dose: 32.0 mg/kg/injection, schedule: Q01DX005 (ip), vehicle: saline) 113 % of control; (dose: 64.0 mg/kg/injection, schedule: Q01DX005 (ip), vehicle: saline) 119 % of control and 124 % of control.

As for `CC(=O)OC(C1CO1)C(OC(C)=O)C1CO1` (stereo not given), the T/C by setting is: (dose: 5.0 mg/kg/injection, schedule: Q01DX005 (ip), vehicle: saline) 301 % of control; (dose: 6.0 mg/kg/injection, schedule: Q01DX005 (ip), vehicle: saline) 365 % of control; (dose: 7.0 mg/kg/injection, schedule: Q01DX005 (oral), vehicle: saline) 253 % of control; (dose: 10.0 mg/kg/injection, schedule: Q01DX005 (ip), vehicle: saline) 301 % of control; (dose: 12.0 mg/kg/injection, schedule: Q01DX005 (ip), vehicle: saline) 365 % of control; (dose: 14.0 mg/kg/injection, schedule: Q01DX005 (oral), vehicle: saline) 365 % of control.

Take `COC1C(O)C(C)OC(OC2C(Oc3cccc4c(O)c5c(=O)oc6ccc(C)c7c(=O)oc(c34)c5c67)OC(C)C(O)C2O)C1O` (stereo not given): the T/C (dose: 2.0 mg/kg/injection, schedule: Q01DX005 (ip), vehicle: Klucel (hydroxypropylcellulose) (HPC)) is 105 % of control and 122 % of control and 124 % of control; the T/C (dose: 4.0 mg/kg/injection, schedule: Q01DX005 (ip), vehicle: Klucel (hydroxypropylcellulose) (HPC)) is 95 % of control and 106 % of control; the T/C under setting [5] is 90 % of control and 111 % of control and 122 % of control; the T/C under setting [6] was 99 % of control and 113 % of control and 124 % of control; the T/C under setting [1] was 97 % of control and 103 % of control; the T/C under setting [2] is 99 % of control and 105 % of control and 107 % of control.
